What was measured:
Test in all cases: relative viability (nuclei count vs DMSO), 5 days (fraction); higher = more cells survive
[1] = system: A-427
Method in brief: (§1)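 Cells from lung cancer lines were seeded into 1536-well plates and, one day later, dosed by pin tool. Treatments were either a single drug or a fixed dose of an anchor drug with five library-drug doses (not always all listed) in √10 steps. After 5 days, nuclei were stained in a one-step fixation (final 0.05% Triton X-100, 1% formaldehyde, 1 ug/ml Hoechst) and counted on 4× images, and relative viability is the treated-to-vehicle nuclei ratio, as the median of duplicate plates.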

[2] = system: ChaGo-K-1
Method in brief: as §1

[3] = system: HCC-366
Method in brief: as §1

[4] = system: NCI-H23
Method in brief: as §1

[5] = system: NCI-H2228
Method in brief: as §1

[6] = system: HCC-78
Method in brief: as §1

[7] = system: EMC-BAC-2
Method in brief: as §1

[8] = system: NCI-H1793
Method in brief: as §1

[9] = system: NCI-H1993
Method in brief: as §1

[10] = system: NCI-H1734
Method in brief: as §1

[11] = system: NCI-H2405
Method in brief: as §1

[12] = system: NCI-H2126
Method in brief: as §1

[13] = system: NCI-H2023
Method in brief: as §1

[14] = system: HCC-15
Method in brief: as §1

[15] = system: SK-LU-1
Method in brief: as §1

[16] = system: HARA
Method in brief: as §1

[17] = system: LC-2-ad
Method in brief: as §1

[18] = system: NCI-H2009
Method in brief: as §1

[19] = system: UMC-11
Method in brief: as §1

[20] = system: ABC-1
Method in brief: as §1

[21] = system: NCI-H838
Method in brief: as §1

[22] = system: NCI-H1944
Method in brief: as §1

[23] = system: COR-L23
Method in brief: as §1

SMILES: CC1(C)CCC(c2ccc(Cl)cc2)=C(CN2CCN(c3ccc(C(=O)NS(=O)(=O)c4ccc(N[C@H](CCN5CCOCC5)CSc5ccccc5)c(S(=O)(=O)C(F)(F)F)c4)cc3)CC2)C1 [Navitoclax] + O=C(CCCCCCC(=O)Nc1ccccc1)NO [Vorinostat] (partner 1 µM)
- relative viability ([1]; first compound 0.005 µM): 0.915
- relative viability ([1]; first compound 0.01581 µM): 0.873
- relative viability ([1]; first compound 0.05 µM): 0.91
- relative viability ([1]; first compound 0.1581 µM): 0.892
- relative viability ([1]; first compound 0.5 µM): 0.838
- relative viability ([2]; first compound 0.005 µM): 0.789
- relative viability ([2]; first compound 0.01581 µM): 0.786
- relative viability ([2]; first compound 0.05 µM): 0.496
- relative viability ([2]; first compound 0.1581 µM): 0.759
- relative viability ([2]; first compound 0.5 µM): 0.781
- relative viability ([3]; first compound 0.005 µM): 0.302
- relative viability ([3]; first compound 0.01581 µM): 0.356
- relative viability ([3]; first compound 0.1581 µM): 0.379
- relative viability ([3]; first compound 0.5 µM): 0.306
- relative viability ([4]; first compound 0.005 µM): 0.594
- relative viability ([4]; first compound 0.01581 µM): 0.468
- relative viability ([4]; first compound 0.05 µM): 0.505
- relative viability ([4]; first compound 0.1581 µM): 0.478
- relative viability ([4]; first compound 0.5 µM): 0.544
- relative viability ([5]; first compound 0.005 µM): 1.13
- relative viability ([5]; first compound 0.01581 µM): 0.639
- relative viability ([5]; first compound 0.1581 µM): 0.397
- relative viability ([5]; first compound 0.5 µM): 0.641
- relative viability ([6]; first compound 0.005 µM): 0.415
- relative viability ([6]; first compound 0.01581 µM): 0.49
- relative viability ([6]; first compound 0.05 µM): 0.429
- relative viability ([6]; first compound 0.1581 µM): 0.431
- relative viability ([6]; first compound 0.5 µM): 0.431
- relative viability ([7]; first compound 0.005 µM): 0.413
- relative viability ([7]; first compound 0.01581 µM): 0.507
- relative viability ([7]; first compound 0.05 µM): 0.548
- relative viability ([7]; first compound 0.1581 µM): 0.422
- relative viability ([7]; first compound 0.5 µM): 0.418
- relative viability ([8]; first compound 0.005 µM): 0.744
- relative viability ([8]; first compound 0.01581 µM): 0.873
- relative viability ([8]; first compound 0.1581 µM): 0.667
- relative viability ([8]; first compound 0.5 µM): 0.444
- relative viability ([9]; first compound 0.005 µM): 0.74
- relative viability ([9]; first compound 0.01581 µM): 0.81
- relative viability ([9]; first compound 0.05 µM): 1
- relative viability ([9]; first compound 0.1581 µM): 0.708
- relative viability ([9]; first compound 0.5 µM): 0.703
- relative viability ([10]; first compound 0.005 µM): 0.829
- relative viability ([10]; first compound 0.01581 µM): 0.938
- relative viability ([10]; first compound 0.1581 µM): 0.755
- relative viability ([10]; first compound 0.5 µM): 0.703
- relative viability ([11]; first compound 0.005 µM): 0.979
- relative viability ([11]; first compound 0.01581 µM): 1.09
- relative viability ([11]; first compound 0.05 µM): 1.11
- relative viability ([11]; first compound 0.1581 µM): 1
- relative viability ([11]; first compound 0.5 µM): 0.811
- relative viability ([12]; first compound 0.005 µM): 0.789
- relative viability ([12]; first compound 0.01581 µM): 0.875
- relative viability ([12]; first compound 0.05 µM): 0.795
- relative viability ([12]; first compound 0.1581 µM): 0.761
- relative viability ([12]; first compound 0.5 µM): 0.681
- relative viability ([13]; first compound 0.005 µM): 0.744
- relative viability ([13]; first compound 0.01581 µM): 0.76
- relative viability ([13]; first compound 0.05 µM): 0.659
- relative viability ([13]; first compound 0.1581 µM): 0.557
- relative viability ([13]; first compound 0.5 µM): 0.473
- relative viability ([14]; first compound 0.005 µM): 0.808
- relative viability ([14]; first compound 0.01581 µM): 0.831
- relative viability ([14]; first compound 0.05 µM): 0.684
- relative viability ([14]; first compound 0.1581 µM): 0.794
- relative viability ([14]; first compound 0.5 µM): 0.809
- relative viability ([15]; first compound 0.005 µM): 0.787
- relative viability ([15]; first compound 0.01581 µM): 0.776
- relative viability ([15]; first compound 0.05 µM): 0.689
- relative viability ([15]; first compound 0.1581 µM): 0.627
- relative viability ([15]; first compound 0.5 µM): 0.516
- relative viability ([16]; first compound 0.005 µM): 0.536
- relative viability ([16]; first compound 0.01581 µM): 0.629
- relative viability ([16]; first compound 0.1581 µM): 0.521
- relative viability ([16]; first compound 0.5 µM): 0.55
- relative viability ([17]; first compound 0.005 µM): 0.716
- relative viability ([17]; first compound 0.01581 µM): 0.686
- relative viability ([17]; first compound 0.05 µM): 0.665
- relative viability ([17]; first compound 0.1581 µM): 0.67
- relative viability ([17]; first compound 0.5 µM): 0.712
- relative viability ([18]; first compound 0.005 µM): 0.719
- relative viability ([18]; first compound 0.01581 µM): 0.88
- relative viability ([18]; first compound 0.05 µM): 0.759
- relative viability ([18]; first compound 0.1581 µM): 0.728
- relative viability ([18]; first compound 0.5 µM): 0.719
- relative viability ([19]; first compound 0.005 µM): 0.43
- relative viability ([19]; first compound 0.01581 µM): 0.371
- relative viability ([19]; first compound 0.05 µM): 0.39
- relative viability ([19]; first compound 0.1581 µM): 0.312
- relative viability ([19]; first compound 0.5 µM): 0.148
- relative viability ([20]; first compound 0.005 µM): 1.22
- relative viability ([20]; first compound 0.01581 µM): 1.34
- relative viability ([20]; first compound 0.05 µM): 0.725
- relative viability ([20]; first compound 0.1581 µM): 1.41
- relative viability ([20]; first compound 0.5 µM): 1.04
- relative viability ([21]; first compound 0.005 µM): 0.678
- relative viability ([21]; first compound 0.01581 µM): 0.73
- relative viability ([21]; first compound 0.05 µM): 0.76
- relative viability ([21]; first compound 0.1581 µM): 0.73
- relative viability ([21]; first compound 0.5 µM): 0.667
- relative viability ([22]; first compound 0.005 µM): 0.54
- relative viability ([22]; first compound 0.01581 µM): 0.603
- relative viability ([22]; first compound 0.1581 µM): 0.457
- relative viability ([22]; first compound 0.5 µM): 0.578
- relative viability ([23]; first compound 0.005 µM): 0.475
- relative viability ([23]; first compound 0.01581 µM): 0.535
- relative viability ([23]; first compound 0.05 µM): 0.425
- relative viability ([23]; first compound 0.1581 µM): 0.386
- relative viability ([23]; first compound 0.5 µM): 0.411
